Assay results published in ChEMBL document CHEMBL1201862, “PubChem BioAssay data set” (2004).
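Protocol summary: plate cells (96-well), add compound at 5 concentrations, incubate 48 h, interpolate endpoints linearly. GI50: concentration for 50% inhibition of growth.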 Activity calls are given as the source filed them. No stated cut-off is given here; in the data, active = GI50 up to about 1.1 µM and inactive = higher.

What was measured:
Test in all cases: NCI-60 cell line screen, 48 h
HT-29 = system: HT-29
BT-549 = system: BT-549
Malme-3M = system: Malme-3M
NCI-H226 = system: NCI-H226
NCI-H460 = system: NCI-H460
IGROV-1 = system: IGROV-1
MDA-N = system: MDA-N
786-0 = system: 786-0
CAKI-1 = system: CAKI-1
SF-268 = system: SF-268
DU-145 = system: DU-145
RXF 393 = system: RXF 393
MDA-MB-231 = system: MDA-MB-231
SNB-19 = system: SNB-19
TK-10 = system: TK-10
SN12C = system: SN12C
SK-MEL-28 = system: SK-MEL-28
HCT-15 = system: HCT-15
CCRF-CEM = system: CCRF-CEM
UACC-257 = system: UACC-257
UACC-62 = system: UACC-62
OVCAR-8 = system: OVCAR-8
T47D = system: T47D
A549 = system: A549
ACHN = system: ACHN
SK-MEL-5 = system: SK-MEL-5
HCT-116 = system: HCT-116
MOLT-4 = system: MOLT-4
SNB-75 = system: SNB-75
KM12 = system: KM12
SK-OV-3 = system: SK-OV-3
HOP-92 = system: HOP-92
NCI-H23 = system: NCI-H23
OVCAR-3 = system: OVCAR-3
M14 = system: M14
U-251 = system: U-251
MDA-MB-435 = system: MDA-MB-435
SW-620 = system: SW-620
SF-539 = system: SF-539
OVCAR-5 = system: OVCAR-5
NCI/ADR-RES = system: NCI/ADR-RES
A498 = system: A498
SK-MEL-2 = system: SK-MEL-2
SR = system: SR
EKVX = system: EKVX
UO-31 = system: UO-31
SF-295 = system: SF-295
HL-60 = system: HL-60
OVCAR-4 = system: OVCAR-4
NCI-H522 = system: NCI-H522
LOX IMVI = system: LOX IMVI
COLO 205 = system: COLO 205
Hs-578T = system: Hs-578T
HOP-62 = system: HOP-62
HCC 2998 = system: HCC 2998
K562 = system: K562
MCF7 = system: MCF7

Cc1ccc(C(=O)c2[nH]c(Nc3cc(C)ccn3)c(C(=S)Nc3ccccc3)c2N)cc1
GI50 (HT-29): > 100 µM (inactive) | GI50 (BT-549): > 100 µM (inactive) | GI50 (Malme-3M): > 100 µM (inactive) | GI50 (NCI-H226): > 100 µM (inactive) | GI50 (NCI-H460): > 100 µM (inactive) | GI50 (IGROV-1): > 100 µM (inactive) | GI50 (MDA-N): > 100 µM (inactive) | GI50 (786-0): > 100 µM (inactive) | GI50 (CAKI-1): > 100 µM (inactive) | GI50 (SF-268): > 100 µM (inactive) | GI50 (DU-145): > 100 µM (inactive) | GI50 (RXF 393): > 100 µM (inactive) | GI50 (MDA-MB-231): > 100 µM (inactive) | GI50 (SNB-19): > 100 µM (inactive) | GI50 (TK-10): > 100 µM (inactive) | GI50 (SN12C): > 100 µM (inactive) | GI50 (SK-MEL-28): > 100 µM (inactive) | GI50 (HCT-15): > 100 µM | GI50 (CCRF-CEM): > 100 µM (inactive) | GI50 (UACC-257): > 100 µM (inactive) | GI50 (UACC-62): > 100 µM (inactive) | GI50 (OVCAR-8): > 100 µM (inactive) | GI50 (T47D): > 100 µM (inactive) | GI50 (A549): > 100 µM (inactive) | GI50 (ACHN): > 100 µM (inactive) | GI50 (SK-MEL-5): > 100 µM (inactive) | GI50 (HCT-116): > 100 µM (inactive) | GI50 (MOLT-4): > 100 µM (inactive) | GI50 (SNB-75): > 100 µM (inactive) | GI50 (KM12): > 100 µM (inactive) | GI50 (SK-OV-3): > 100 µM (inactive) | GI50 (HOP-92): > 100 µM (inactive) | GI50 (NCI-H23): > 100 µM (inactive) | GI50 (OVCAR-3): > 100 µM (inactive) | GI50 (M14): > 100 µM (inactive) | GI50 (U-251): > 100 µM (inactive) | GI50 (MDA-MB-435): > 100 µM (inactive) | GI50 (SW-620): > 100 µM (inactive) | GI50 (SF-539): > 100 µM (inactive) | GI50 (OVCAR-5): > 100 µM (inactive) | GI50 (NCI/ADR-RES): > 100 µM (inactive) | GI50 (A498): > 100 µM (inactive) | GI50 (SK-MEL-2): > 100 µM (inactive) | GI50 (SR): > 100 µM (inactive) | GI50 (EKVX): > 100 µM (inactive) | GI50 (UO-31): > 100 µM (inactive) | GI50 (SF-295): > 100 µM (inactive) | GI50 (HL-60): > 100 µM (inactive) | GI50 (OVCAR-4): > 100 µM (inactive) | GI50 (NCI-H522): > 100 µM (inactive) | GI50 (LOX IMVI): > 100 µM (inactive) | GI50 (COLO 205): > 100 µM (inactive) | GI50 (Hs-578T): > 100 µM (inactive) | GI50 (HOP-62): > 100 µM (inactive) | GI50 (HCC 2998): > 100 µM (inactive) | GI50 (K562): > 100 µM (inactive) | GI50 (MCF7): 87.5 µM (inactive)
